These results are taken from patent publication US7999126B2, “Palladium(0)-dibenzylidene acetone complexes” (priority 2007, dated 2011).

The nature of this data set: Solubility Test: CHCl3-insoluble residue of the product. Conditions: 1.00 g product in 150 ml chloroform. The class given is physicochemical. The procedure:
1.00 g of the product are dissolved in 150 ml of chloroform and stirred at room temperature for 30 minutes. The solution is then aspirated through a membrane filter. The filter is washed with 30 ml of water and 30 ml of acetone and subsequently dried over night at 45° C. in vacuo.
1.00 g of the product were dissolved in 150 ml of chloroform and stirred for 30 minutes at room temperature. The solution was aspirated through a membrane filter. The filter was washed with 30 ml of water and 30 ml of acetone and subsequently dried over night at 45° C. in vacuo.
1.00 g of the product were dissolved in 150 ml of chloroform and stirred for 30 minutes at room temperature. The solution was aspirated through a membrane filter. The filter was washed with 30 ml of water and 30 ml of acetone, and the filter was subsequently dried over night at 45° C. in vacuo.

With `O=C(/C=C/c1ccccc1)/C=C/c1ccccc1.O=C(/C=C/c1ccccc1)/C=C/c1ccccc1.[Pd]` [Experiment 1, Pd(dba)2], under “room temperature”, the CHCl3-insoluble ingredients is 0%. Besides, the “residue (Solubility Test)” value (stirred 30 minutes at room temperature, membrane filter, filter dried) was determined as 0%.
